These results are taken from patent US12129237B2, “Substituted diaminocarboxamide and diaminocarbonitrile pyrimidines, compositions thereof, and methods of treatment therewith” (SIGNAL PHARMACEUTICALS, LLC, priority 2011, dated 2024).

The structures appear in SMILES notation.

In the first experiment the target is T1, JNK1 (Homo sapiens, UniProt P45983).
T1 construct: purchased Carna Biosciences
T1 sequence (P45983 whole entry): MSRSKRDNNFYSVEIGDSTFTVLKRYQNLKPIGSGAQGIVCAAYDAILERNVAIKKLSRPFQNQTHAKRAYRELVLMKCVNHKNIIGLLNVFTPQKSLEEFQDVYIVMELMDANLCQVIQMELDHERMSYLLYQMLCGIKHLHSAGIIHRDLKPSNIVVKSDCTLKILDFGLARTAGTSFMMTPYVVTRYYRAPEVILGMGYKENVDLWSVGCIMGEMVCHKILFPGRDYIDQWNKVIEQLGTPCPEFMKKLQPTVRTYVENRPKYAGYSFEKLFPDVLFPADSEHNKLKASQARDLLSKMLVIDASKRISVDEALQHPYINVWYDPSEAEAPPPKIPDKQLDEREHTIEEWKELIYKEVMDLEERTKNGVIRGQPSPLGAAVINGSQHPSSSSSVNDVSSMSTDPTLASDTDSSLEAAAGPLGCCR
Kind of experiment: JNK1 biochemical assays (one or more of: time resolved fluorescence, Z'-LYTE Cascade, radioactive). Particulars: Table 2; JNK1 IC50 activity level; read-out: Act. Level.
Experimental: JNK1 Assay. A 384-well time resolved fluorescence assay was used to monitor JNK1 activity. The JNK1 assay was run in the following assay buffer: 50 mM HEPES, 10 mM MgCl2, 1 mM EGTA, 2 mM DTT, and 0.01% Tween 20. To initiate the reaction 100 nM of ULight™-labeled 4EBP1 peptide (Perkin-Elmer) and 5 μM of ATP were mixed with 500 pM of JNK1 (Carna Biosciences), for a total assay volume of 20 μL in each well. The assay was incubated at room temperature for 1 h and terminated using a mixture of 30 mM EDTA and 4 nM Eu-anti-4EBP1, by adding 20 μL of stop solution to each well. Plates were read on a Perkin-Elmer Envision Reader.
JNK1 Assay. The JNK1 Z′-LYTE® Cascade kinase assay was run in the following buffer: 50 mM HEPES at pH 7.5, 0.01% BRIJ-35, 10 mM MgCl2, 1 mM EGTA, and 1 mM DTT. […] The assay was incubated at room temperature for 1 h. […] The data was then read on a fluorescence plate reader and analyzed.
JNK1 assay. The radioactive JNK kinase assay was carried out in a 96-well plate format at a final volume of 100 μL. […] JNK1 was diluted in the following dilution buffer (20 mM HEPES pH 7.6, 0.1 mM EDTA, 2.5 mM MgCl2, 0.004% (w/v) Triton X100, 2 μg/ml Leupeptin, 20 mM B-glycerol phosphate, 0.1 mM Na3VO4 dithiothreitol) and then pre-mixed with cJun diluted in the substrate solution buffer (20 mM HEPES pH 7.6, 50 mM NaCl, 0.1 mM EDTA, 2.5 mM MgCl2, 0.05% (w/v) Triton X100). […] The enzyme, substrate and inhibitor mixture was allowed to equilibrate at room temperature for 15 minutes. The reaction was started by the addition of 10 μL of 10×ATP in kinase buffer (130 mM MgCl2, 6 mM dithiothreitol, 150 mM para-nitrophenyl phosphate, 100 μCi/ml γ-[^33P]-ATP). Reactions were allowed to proceed for 60 minutes before precipitation of protein via trichloroacetic acid (7.2% TCA final). […] The precipitate was washed with Phosphate Buffered Saline and the amount of phosphate incorporated into cJun was quantified by scintillation counting using a Packard Topcount-NXT. All assays were conducted under conditions where phosphate incorporation was linear with respect to time and enzyme concentration.
As for `CC(C)Nc1nc(N[C@@H]2CCc3ncccc3C2)ncc1C(N)=O` [Example B-81, (R)-4-(isopropylamino)-2-(5,6,7,8-tetrahydroquinolin-6-ylamino)pyrimidine-5-carboxamide], the IC50 lay in the range of 200 to 800 nM. As for `NC(=O)c1cnc(NCC2CCCO2)nc1Nc1ccccc1` (stereo not drawn) [Example B-64, 4-(phenylamino)-2-((tetrahydrofuran-2-yl)methylamino)pyrimidine-5-carboxamide], the IC50 is 200 to 800 nM.

As to `CC1(C)CCC(Nc2ncc(C(N)=O)c(N[C@@H]3CCC[C@H](O)C3)n2)c2ccccc21` (stereo partly drawn) [Example B-99, 2-(4,4-dimethyl-1,2,3,4-tetrahydronaphthalen-1-ylamino)-4-((1R,3S)-3-hydroxycyclohexylamino)pyrimidine-5-carboxamide], the IC50 lay in the range of 200 to 800 nM. On the same count and under the same terms, the same measure for `NC(=O)c1cnc(NCc2ccc(F)cc2)nc1Nc1ccccc1` [Example B-67, 2-(4-fluorobenzylamino)-4-(phenylamino)pyrimidine-5-carboxamide]: 200 to 800 nM.

Take `NC(=O)c1cnc(NCc2ccc(F)c(F)c2)nc1Nc1ccccc1` [Example B-70, 2-(3,4-difluorobenzylamino)-4-(phenylamino)pyrimidine-5-carboxamide]: the IC50 is 200 to 800 nM.

Staying with this experiment, now noted: Table 3; JNK1 IC50 activity level; read-out: Act. Level.
Consider `C[C@@H]1CC[C@@H](Nc2nc(NC3CCC3)ncc2C#N)C[C@H]1O` [Example C-65, 2-(cyclobutylamino)-4-((1R,3R,4R)-3-hydroxy-4-methylcyclohexylamino) pyrimidine-5-carbonitrile], for which the IC50 is < 200 nM. For `N#Cc1cnc(N[C@H]2CC[C@H](OCC(F)(F)F)CC2)nc1N[C@@H]1CCCC[C@H](O)C1` [Example C-30, 4-((1R,3S)-3-hydroxycycloheptylamino)-2-((1r,4R)-4-(2,2,2-trifluoroethoxy)cyclohexylamino) pyrimidine-5-carbonitril], the IC50 is < 200 nM. Turning to `CC[C@]1(O)CCC[C@@H](Nc2nc(N[C@H]3CC[C@H](OC)CC3)ncc2C#N)C1` [Example C-33, 4-((1R,3S)-3-ethyl-3-hydroxycyclohexylamino)-2-((1r,4R)-4-methoxycyclohexylamino) pyrimidine-5-carbonitrile], the IC50 is < 200 nM.

The experiment is the same for the next values; noted with them: one or more of the JNK1 biochemical assays; read-out: Act. Level (JNK1 IC50 activity level).
As for `C[C@]1(O)CCC[C@@H](Nc2nc(NC3CC3)ncc2C(N)=O)C1` [Example 378, 2-(cyclopropylamino)-4-((1R,3S)-3-hydroxy-3-methylcyclohexylamino)pyrimidine-5-carboxamide], the IC50 was < 200 nM. On to `CC(C)(C)Nc1ncc(C(N)=O)c(N[C@@H]2CCC[C@](C)(O)C2)n1` [Example 213, 2-(tert-butylamino)-4-((1R,3S)-3-hydroxy-3-methylcyclohexylamino)pyrimidine-5-carboxamide], for which the IC50 is < 200 nM. As for `CNc1nc(N[C@H]2CC[C@H](O)CC2)ncc1C(N)=O` [Example 270, 2-((1r,4r)-4-hydroxycyclohexylamino)-4-(methylamino)pyrimidine-5-carboxamide], the IC50 was in the range of 200 to 800 nM. On to `CC(C)CCNc1nc(N[C@H]2CC[C@H](O)CC2)ncc1C(N)=O` [Example 220, 2-((1r,4r)-4-hydroxycyclohexylamino)-4-(isopentylamino)pyrimidine-5-carboxamide], for which the IC50 is < 200 nM. Regarding `C[C@H](Nc1ncc(C(N)=O)c(N[C@@H]2CC[C@@H](C)[C@H](O)C2)n1)C1CC1` [Example 395, 2-((S)-1-cyclopropylethylamino)-4-((1R,3R,4R)-3-hydroxy-4-methylcyclohexylamino)pyrimidine-5-carboxamide], the IC50 is < 200 nM. For `CC(C)(C)Nc1nc(N[C@@H]2CCCC[C@@H](O)C2)ncc1C(N)=O` [Example 386, 4-(tert-butylamino)-2-((1R,3R)-3-hydroxycycloheptylamino)pyrimidine-5-carboxamide], the IC50 was < 200 nM.

For the molecule `C[C@@H]1CC[C@@H](Nc2nc(NC34CC(C(C)(C)C)(C3)C4)ncc2C(N)=O)C[C@H]1O` [Example 489, 2-(3-tert-butylbicyclo[1.1.1]pentan-1-ylamino)-4-((1R,3R,4R)-3-hydroxy-4-methylcyclohexylamino)pyrimidine-5-carboxamide], the IC50 was < 200 nM. As for `CC(C)(C)Nc1nc(N[C@H]2CCCC[C@@H](O)C2)ncc1C(N)=O` [Example 388, 4-(tert-butylamino)-2-((1S,3R)-3-hydroxycycloheptylamino)pyrimidine-5-carboxamide], the IC50 is < 200 nM.

With `CC[C@H](C)Nc1ncc(C(N)=O)c(N[C@@H]2CCC[C@H](O)C2)n1` [Example 496, 2-(sec-butylamino)-4-((1R,3S)-3-hydroxycyclohexylamino)pyrimidine-5-carboxamide], the IC50 was < 200 nM.

With `NC(=O)c1cnc(NC2CCC2)nc1N[C@@H]1CCC[C@H](O)C1` [Example 341, 2-(cyclobutylamino)-4-((1R,3S)-3-hydroxycyclohexylamino)pyrimidine-5-carboxamide], the IC50 was < 200 nM.

Regarding `CC(C)(C)Nc1nc(NC23CCC(F)(CC2)CC3)ncc1C(N)=O` [Example 289, 4-(tert-butylamino)-2-(4-fluorobicyclo[2.2.2]octan-1-ylamino)pyrimidine-5-carboxamide], the IC50 was < 200 nM. `CC(C)(C)Nc1nc(N[C@H]2CC[C@H](OC(F)F)CC2)ncc1C(N)=O` [Example 319, 4-(tert-butylamino)-2-((1r,4r)-4-(difluoromethoxy)cyclohexylamino)pyrimidine-5-carboxamide]: the IC50 was < 200 nM.

Turning to `NC(=O)c1cnc(NC2CC2)nc1N[C@@H]1CCC[C@H](O)C1` [Example 379, 2-(cyclopropylamino)-4-((1R,3S)-3-hydroxycyclohexylamino)pyrimidine-5-carboxamide], the IC50 is < 200 nM.

With `C[C@@H]1CC[C@@H](Nc2nc(NCC(C)(C)C)ncc2C(N)=O)C[C@H]1O` [Example 367, 4-((1R,3R,4R)-3-hydroxy-4-methylcyclohexylamino)-2-(neopentylamino)pyrimidine-5-carboxamide], the IC50 was < 200 nM.

For `CCC(CC)Nc1nc(N[C@H]2CC[C@H](O)CC2)ncc1C(N)=O` [Example 363, 2-((1r,4r)-4-hydroxycyclohexylamino)-4-(pentan-3-ylamino)pyrimidine-5-carboxamide], the IC50 is < 200 nM. Take `CC[C@@H](C)Nc1ncc(C(N)=O)c(N[C@@H]2CC[C@@H](C)[C@H](O)C2)n1` [Example 383, 2-(sec-butylamino)-4-((1R,3R,4R)-3-hydroxy-4-methylcyclohexylamino)pyrimidine-5-carboxamide]: the IC50 is < 200 nM.

The experiment is the same for the next values; noted with them: tested in one or more of the JNK1 biochemical assays; read-out: Act. Level (JNK1 biochemical assay IC50 activity level).
Regarding `CCO[C@H]1CC[C@H](Nc2ncc(C(N)=O)c(N[C@H]3CCOC3)n2)CC1` [Example A-105, 2-((1r,4S)-4-ethoxycyclohexylamino)-4-((S)-tetrahydrofuran-3-ylamino)pyrimidine-5-carboxamide], the IC50 was < 200 nM.

Take `C[C@]1(O)CCC[C@@H](Nc2nc(NC3CCC(F)(F)CC3)ncc2C(N)=O)C1` [Example A-187, 2-(4,4-difluorocyclohexylamino)-4-((1R,3S)-3-hydroxy-3-methylcyclohexylamino)pyrimidine-5-carboxamide]: the IC50 is < 200 nM. In the case of `CC(C)CNc1nc(N[C@H]2CC[C@H](O)CC2)ncc1C(N)=O` [Example A-88, 2-((1r,4r)-4-hydroxycyclohexylamino)-4-(isobutylamino)pyrimidine-5-carboxamide], the IC50 is < 200 nM.

With `CO[C@@H]1CCC[C@@H](Nc2ncc(C(N)=O)c(N[C@@H]3CCC[C@H](O)C3)n2)CC1` [Example A-201, 4-((1R,3S)-3-hydroxycyclohexylamino)-2-((1R,4R)-4-methoxycycloheptylamino)pyrimidine-5-carboxamide], the IC50 is < 200 nM. For the molecule `CNC(=O)[C@H]1CC[C@@H](Nc2nc(NC3CCCC3)ncc2C(N)=O)CC1` [Example A-130, 2-(cyclopentylamino)-4-((1s,4s)-4-(methylcarbamoyl)cyclohexylamino)pyrimidine-5-carboxamide], the IC50 lay in the range of 1000 to 10000 nM.

`NC(=O)c1cnc(N[C@H]2CC[C@H](O)CC2)nc1N[C@@H]1CCCC[C@H](O)C1` [Example A-171, 4-((1R,3S)-3-hydroxycycloheptylamino)-2-((1r,4R)-4-hydroxycyclohexylamino)pyrimidine-5-carboxamide]: the IC50 was < 200 nM.

Take `CO[C@H]1CC[C@H](Nc2ncc(C(N)=O)c(N[C@@H]3CCCNC3)n2)CC1` [Example A-47, 2-((1r,4R)-4-methoxycyclohexylamino)-4-((R)-piperidin-3-ylamino)pyrimidine-5-carboxamide]: the IC50 is < 200 nM.

For `CO[C@H]1CC[C@H](Nc2ncc(C(N)=O)c(NC3CCCC3)n2)CC1` [Example A-190, 4-(cyclopentylamino)-2-((1r,4r)-4-methoxycyclohexylamino)pyrimidine-5-carboxamide], the IC50 was < 200 nM.

With `CCC(=O)N1CCC(Nc2nc(N[C@H]3CC[C@H](O)CC3)ncc2C(N)=O)CC1` [Example A-90, 2-((1r,4r)-4-hydroxycyclohexylamino)-4-(1-propionylpiperidin-4-ylamino)pyrimidine-5-carboxamide], the IC50 was < 200 nM. With `NC(=O)c1cnc(NC2CCC2)nc1N[C@H]1CC[C@@H](C(=O)NC2CC2)CC1` [Example A-132, 2-(cyclobutylamino)-4-((1s,4s)-4-(cyclopropylcarbamoyl)cyclohexylamino)pyrimidine-5-carboxamide], the IC50 lay in the range of 1000 to 10000 nM.

As for `CO[C@@H]1CCC[C@H](Nc2ncc(C(N)=O)c(N[C@@H]3CCC[C@H](O)C3)n2)CC1` [Example A-162, 4-((1R,3S)-3-hydroxycyclohexylamino)-2-((1S,4R)-4-methoxycycloheptylamino)pyrimidine-5-carboxamide], the IC50 was < 200 nM. For the molecule `C[C@]1(O)CCC[C@@H](Nc2nc(NC3CCOCC3)ncc2C(N)=O)C1` [Example A-169, 4-((1R,3S)-3-hydroxy-3-methylcyclohexylamino)-2-(tetrahydro-2H-pyran-4-ylamino)pyrimidine-5-carboxamide], the IC50 is < 200 nM.
